In US8039514B2, “Sulfonamide compounds and use thereof” (Asahi Kasei Pharma Corporation, priority 2008, dated 2011):

target: T1, human calcium-sensing receptor (CaSR) (Homo sapiens, UniProt P41180); assay: intracellular Ca assay, CaSR antagonist activity in HEK293/hCaSR cells; type: cell-based; conditions: Fura2-AM, inhibition of response to calcium chloride ligand solution, read-out: IC50 values according to the intracellular Ca assay (CaSR antagonist activity)
T1 construct: expressed in transfected cells
T1 sequence (P41180 20-1078): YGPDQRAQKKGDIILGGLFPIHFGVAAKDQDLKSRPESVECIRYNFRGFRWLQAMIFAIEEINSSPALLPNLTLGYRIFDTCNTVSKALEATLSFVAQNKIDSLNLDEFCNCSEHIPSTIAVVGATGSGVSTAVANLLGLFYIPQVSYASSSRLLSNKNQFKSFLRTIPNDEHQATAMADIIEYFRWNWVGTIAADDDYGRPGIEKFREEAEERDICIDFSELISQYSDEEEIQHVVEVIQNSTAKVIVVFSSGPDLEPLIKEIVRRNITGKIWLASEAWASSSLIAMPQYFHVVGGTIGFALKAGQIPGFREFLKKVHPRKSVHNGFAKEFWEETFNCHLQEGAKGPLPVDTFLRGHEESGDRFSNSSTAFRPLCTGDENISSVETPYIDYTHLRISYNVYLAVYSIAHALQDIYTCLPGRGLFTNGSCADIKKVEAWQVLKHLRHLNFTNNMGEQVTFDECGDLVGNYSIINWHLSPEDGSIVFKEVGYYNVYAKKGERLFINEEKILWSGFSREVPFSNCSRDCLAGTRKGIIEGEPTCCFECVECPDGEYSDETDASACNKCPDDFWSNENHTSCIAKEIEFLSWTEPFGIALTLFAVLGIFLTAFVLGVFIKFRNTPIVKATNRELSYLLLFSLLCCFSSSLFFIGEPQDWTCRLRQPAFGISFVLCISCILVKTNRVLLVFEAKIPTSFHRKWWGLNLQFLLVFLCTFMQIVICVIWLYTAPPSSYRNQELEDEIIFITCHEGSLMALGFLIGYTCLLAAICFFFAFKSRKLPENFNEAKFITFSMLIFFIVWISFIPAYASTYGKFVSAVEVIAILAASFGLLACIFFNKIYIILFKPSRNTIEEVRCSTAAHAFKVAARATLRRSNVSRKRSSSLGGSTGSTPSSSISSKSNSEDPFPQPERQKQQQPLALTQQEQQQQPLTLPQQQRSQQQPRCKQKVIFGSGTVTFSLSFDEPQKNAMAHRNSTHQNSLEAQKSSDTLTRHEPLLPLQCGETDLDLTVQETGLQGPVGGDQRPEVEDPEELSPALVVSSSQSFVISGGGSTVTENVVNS
Summary of the method: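 HEK293/hCaSR cells were loaded with Fura2-AM and pre-incubated with compound for 160 s at 37° C in HEPES buffer (pH 7.4, 0.8 mM CaCl2), then challenged with calcium ligand solution. Read-out was the peak 340/380 nm fluorescence ratio; inhibition is relative to no-compound (0%) and no-calcium-ligand (100%) controls.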

Row | Compound | IC50
1 | Cc1cc(-c2ccccc2CS(=O)(=O)N(C)C[C@H](O)CNC(C)(C)Cc2ccc3ccccc3c2)ccc1C(=O)O [Exp. 3-81, (R)-2′-((N-(2-hydroxy-3-(2-methyl-1-(naphthalen-2-yl)propan-2-ylamino)propyl)-N-methylsulfamoyl)methyl)-3-methylbiphenyl-4-carboxylic acid] | 300 to 1000 nM
2 | CN(C[C@H](O)CNC(C)(C)Cc1ccc2ccccc2c1)S(=O)(=O)Cc1ccccc1-c1cccc(C=CC(=O)O)c1 [Exp. 3-84, (R)-3-(2′-((N-(2-hydroxy-3-(2-methyl-1-(naphthalen-2-yl)propan-2-ylamino)propyl)-N-methylsulfamoyl)methyl)biphenyl-3-yl)acrylic acid] | 1000 to 3000 nM
3 | CN(C[C@H](O)CNC(C)(C)Cc1ccc2ccccc2c1)S(=O)(=O)Cc1cccc(-c2ccc(C=CC(=O)O)cc2)c1 [Exp. 3-86, (R)-3-(3′-((N-(2-hydroxy-3-(2-methyl-1-(naphthalen-2-yl)propan-2-ylamino)propyl)-N-methylsulfamoyl)methyl)biphenyl-4-yl)acrylic acid] | 300 to 1000 nM
4 | CN(C[C@H](O)CNC(C)(C)Cc1ccc2ccccc2c1)S(=O)(=O)Cc1cccc(-c2ccc(CCC(=O)O)cc2)c1 [Exp. 3-87, (R)-3-(3′-((N-(2-hydroxy-3-(2-methyl-1-(naphthalen-2-yl)propan-2-ylamino)propyl)-N-methylsulfamoyl)methyl)biphenyl-4-yl)propionic acid] | 1000 to 3000 nM
5 | CN(C[C@H](O)CNC(C)(C)Cc1ccc2ccccc2c1)S(=O)(=O)Cc1ccc(-c2ccc(CCC(=O)O)cc2)cc1 [Exp. 3-90, (R)-3-(4′-((N-(2-hydroxy-3-(2-methyl-1-(naphthalen-2-yl)propan-2-ylamino)propyl)-N-methylsulfamoyl)methyl)biphenyl-4-yl)propionic acid] | 1000 to 3000 nM
6 | CN(C[C@H](O)CNC(C)(C)Cc1ccc2ccccc2c1)S(=O)(=O)Cc1ccc(-c2cccc(C=CC(=O)O)c2)cc1 [Exp. 3-91, (R)-3-(4′-((N-(2-hydroxy-3-(2-methyl-1-(naphthalen-2-yl)propan-2-ylamino)propyl)-N-methylsulfamoyl)methyl)biphenyl-3-yl)acrylic acid] | 1000 to 3000 nM
7 | CN(C[C@H](O)CNC(C)(C)CCCc1ccccc1)S(=O)(=O)c1ccc(-c2ccc(CCC(=O)O)cc2)c(Cl)c1 [Exp. 3-114, (R)-3-(2′-chloro-4′-(N-(2-hydroxy-3-(2-methyl-5-phenylpentan-2-ylamino)propyl)-N-methylsulfamoyl)biphenyl-4-yl)propionic acid] | ≤ 300 nM
8 | CCc1cc(-c2ccc(CCC(=O)O)cc2)ccc1S(=O)(=O)N(C)C[C@H](O)CNC(C)(C)CCCc1ccccc1 [Exp. 3-116, (R)-3-(3′-ethyl-4′-(N-(2-hydroxy-3-(2-methyl-5-phenylpentan-2-ylamino)propyl)-N-methylsulfamoyl)biphenyl-4-yl)propionic acid] | ≤ 300 nM
9 | CN(C[C@H](O)CNC(C)(C)CC1Cc2ccccc2C1)S(=O)(=O)c1ccc(-c2cccc(C(=O)O)c2)cc1C(F)(F)F [Exp. 3-124, (R)-4′-(N-(3-(1-(2,3-dihydro-1H-inden-2-yl)-2-methylpropan-2-ylamino)-2-hydroxypropyl)-N-methylsulfamoyl)-3′-(trifluoromethyl)biphenyl-3-carboxylic acid] | ≤ 300 nM
10 | CN(C[C@H](O)CNC(C)(C)CC1Cc2ccccc2C1)S(=O)(=O)c1cc(-c2cc(F)cc(C(=O)O)c2)cc(C(F)(F)F)c1 [Exp. 3-128, (R)-3′-(N-(3-(1-(2,3-dihydro-1H-inden-2-yl)-2-methylpropan-2-ylamino)-2-hydroxypropyl)-N-methylsulfamoyl)-5-fluoro-5′-(trifluoromethyl)biphenyl-3-carboxylic acid] | ≤ 300 nM
11 | CN(C[C@H](O)CNC(C)(C)CC1Cc2ccccc2C1)S(=O)(=O)c1cccc(-c2ccc(C(=O)O)s2)c1 [Exp. 3-130, (R)-5-(3-(N-(3-(1-(2,3-dihydro-1H-inden-2-yl)-2-methylpropan-2-ylamino)-2-hydroxypropyl)-N-methylsulfamoyl)phenyl)thiophen-2-carboxylic acid] | ≤ 300 nM
12 | CN(C[C@H](O)CNC(C)(C)CC1Cc2ccccc2C1)S(=O)(=O)c1cc(-c2ccc(CC(=O)O)cc2)cc(C(F)(F)F)c1 [Exp. 3-133, (R)-2-(3′-(N-(3-(1-(2,3-dihydro-1H-inden-2-yl)-2-methylpropan-2-ylamino)-2-hydroxypropyl)-N-methylsulfamoyl)-5′-(trifluoromethyl)biphenyl-4-yl)acetic acid] | ≤ 300 nM
13 | CN(C[C@H](O)CNC(C)(C)CC1Cc2ccccc2C1)S(=O)(=O)c1c(Cl)cc(-c2ccc(CC(=O)O)cc2)cc1Cl [Exp. 3-140, (R)-2-(3′,5′-dichloro-4′-(N-(3-(1-(2,3-dihydro-1H-inden-2-yl)-2-methylpropan-2-ylamino)-2-hydroxypropyl)-N-methylsulfamoyl)biphenyl-4-yl)acetic acid] | ≤ 300 nM
14 | CCc1cc(-c2ccc(CC(=O)O)cc2)ccc1S(=O)(=O)N(C)C[C@H](O)CNC(C)(C)CC1Cc2ccccc2C1 [Exp. 3-147, (R)-2-(4′-(N-(3-(1-(2,3-dihydro-1H-inden-2-yl)-2-methylpropan-2-ylamino)-2-hydroxypropyl)-N-methylsulfamoyl)-3′-ethylbiphenyl-4-yl)acetic acid] | ≤ 300 nM
15 | CN(C[C@H](O)CNC(C)(C)CC1Cc2ccccc2C1)S(=O)(=O)c1cc(-c2cccc(CC(=O)O)c2)cc(C(F)(F)F)c1 [Exp. 3-154, (R)-2-(3′-(N-(3-(1-(2,3-dihydro-1H-inden-2-yl)-2-methylpropan-2-ylamino)-2-hydroxypropyl)-N-methylsulfamoyl)-5′-(trifluoromethyl)biphenyl-3-yl)acetic acid] | ≤ 300 nM

Continued, values first:

Row | IC50 | Compound
16 | 300 to 1000 nM | Cc1ccc(CC(C)(C)NC[C@@H](O)CN(C)S(=O)(=O)c2cccc(-c3ccc(C(=O)O)cc3F)c2)cc1F [Exp. 3-67, (R)-2-fluoro-3′-(N-(3-(1-(3-fluoro-4-methylphenyl)-2-methylpropan-2-ylamino)-2-hydroxypropyl)-N-methylsulfamoyl)biphenyl-4-carboxylic acid]
17 | 1000 to 3000 nM | Cc1ccc(CC(C)(C)NC[C@@H](O)CN(C)S(=O)(=O)c2cccc(-c3cc(F)cc(C(=O)O)c3)c2)cc1F [Exp. 3-71, (R)-5-fluoro-3′-(N-(3-(1-(3-fluoro-4-methylphenyl)-2-methylpropan-2-ylamino)-2-hydroxypropyl)-N-methylsulfamoyl)biphenyl-3-carboxylic acid]
18 | 1000 to 3000 nM | CN(C[C@H](O)CNC(C)(C)Cc1ccc(Cl)c(F)c1)S(=O)(=O)c1cccc(-c2ccc(C(=O)O)cc2F)c1 [Exp. 3-76, (R)-3′-(N-(3-(1-(4-chloro-3-fluorophenyl)-2-methylpropan-2-ylamino)-2-hydroxypropyl)-N-methylsulfamoyl)-2-fluorobiphenyl-4-carboxylic acid]
19 | 1000 to 3000 nM | CN(C[C@H](O)CNC(C)(C)Cc1ccc(Cl)c(F)c1)S(=O)(=O)c1cccc(-c2ccc(CCC(=O)O)cc2)c1 [Exp. 3-78, (R)-3-(3′-(N-(3-(1-(4-chloro-3-fluorophenyl)-2-methylpropan-2-ylamino)-2-hydroxypropyl)-N-methylsulfamoyl)biphenyl-4-yl)propionic acid]
20 | 1000 to 3000 nM | CN(C[C@H](O)CNC(C)(C)Cc1ccc2ccccc2c1)S(=O)(=O)Cc1ccccc1-c1cc(F)cc(C(=O)O)c1 [Exp. 3-85, (R)-5-fluoro-2′-((N-(2-hydroxy-3-(2-methyl-1-(naphthalen-2-yl)propan-2-ylamino)propyl)-N-methylsulfamoyl)methyl)biphenyl-3-carboxylic acid]
21 | ≤ 300 nM | Cc1c(C(=O)O)cccc1-c1cccc(S(=O)(=O)N(C)C[C@H](O)CNC(C)(C)CC2Cc3ccccc3C2)c1 [Exp. 3-92, (R)-3′-(N-(3-(1-(2,3-dihydro-1H-inden-2-yl)-2-methylpropan-2-ylamino)-2-hydroxypropyl)-N-methylsulfamoyl)-2-methylbiphenyl-3-carboxylic acid]
22 | ≤ 300 nM | CN(C[C@H](O)CNC(C)(C)CC1Cc2ccccc2C1)S(=O)(=O)c1c(Cl)cc(-c2cccc(C(=O)O)c2)cc1Cl [Exp. 3-126, (R)-3′,5′-dichloro-4′-(N-(3-(1-(2,3-dihydro-1H-inden-2-yl)-2-methylpropan-2-ylamino)-2-hydroxypropyl)-N-methylsulfamoyl)biphenyl-3-carboxylic acid]
